{"source": "patent US10966426B2", "about": "“Herbicidal compositions comprising phenylpyrimidines” (BASF SE, priority 2016, dated 2021)", "type_in_all_cases": "in vivo", "key": {"Avena fatua [1]": {"tested_on": "Avena fatua", "experiment": "greenhouse pre-emergence treatment, AVEFA", "settings": "Avena fatua, 504 h, 21 DAT, AVEFA, pendimethalin SC 400 g/l solo 125 gai/ha", "text": "(§1) The culture containers used were plastic pots containing loamy sand with approximately 3.0% of humus as substrate. The seeds of the test plants were sown separately for each species.\n(§2) For the pre-emergence treatment, the active compounds, suspended or emulsified in water, were applied directly after sowing by means of finely distributing nozzles. The containers were irrigated gently to promote germination and growth and subsequently covered with transparent plastic hoods until the plants had rooted. This cover caused uniform germination of the test plants unless this was adversely affected by the active compounds.\n(§3) Depending on the species, the plants were kept at 10-25° C. and 20-35° C., respectively.\n(§4) The test period extended over 2 to 4 weeks. During this time, the plants were tended and their response to the individual treatments was evaluated.\n(§5) Evaluation was carried out using a scale from 0 to 100. 100 means no emergence of the plants, or complete destruction of at least the above-ground parts, and 0 means no damage or normal course of growth. A good herbicidal activity is given at values of at least 70, and very good herbicidal activity is given at values of at least 85.\n(§6) The respective stated components A and B, and if appropriate, C were formulated as a 10% by weight strength emulsion concentrate and, with addition of the amount of solvent system, introduced into the spray liquor used for applying the active compound. In the examples, the solvent used was water.\n(§7) In the examples below, using the method of S. R. Colby (1967) “Calculating synergistic and antagonistic responses of herbicide combinations”, Weeds 15, p. 22ff., the value E, which is expected if the activity of the individual active compounds is only additive, was calculated. E=X+Y−(X·Y/100) where X=effect in percent using herbicide A at an application rate a; • Y=effect in percent using herbicide B at application rate b; • E=expected effect (in %) of herbicide A+herbicide B at application rates a+b."}, "Helianthus annuus": {"tested_on": "Helianthus annuus", "experiment": "greenhouse pre-emergence treatment, HELAN", "settings": "Helianthus annuus, 504 h, 21 DAT, HELAN", "text": "as §1, §2, §3, §4, §5, §6, §7"}, "Bromus sterilis [2]": {"tested_on": "Bromus sterilis", "experiment": "greenhouse pre-emergence treatment, BROST", "settings": "Bromus sterilis, 504 h, 21 DAT, BROST", "text": "as §1, §2, §3, §4, §5, §6, §7"}, "Brachiaria decumbens": {"tested_on": "Brachiaria decumbens", "experiment": "greenhouse pre-emergence treatment, BRADC", "settings": "Urochloa decumbens, 504 h, 21 DAT, BRADC", "text": "as §1, §2, §3, §4, §5, §6, §7"}, "Ambrosia elatior": {"tested_on": "Ambrosia elatior", "experiment": "greenhouse pre-emergence treatment, AMBEL", "settings": "Ambrosia artemisiifolia, 504 h, 21 DAT, AMBEL", "text": "as §1, §2, §3, §4, §5, §6, §7"}, "Alopecurus myosuroides": {"tested_on": "Alopecurus myosuroides", "experiment": "greenhouse post-emergence treatment, ALOMY", "settings": "Alopecurus myosuroides, 480 h, 20 DAT, ALOMY, pendimethalin SC 400 g/l solo 125 gai/ha", "procedure": "as §1\n(§8) To this end, the test plants were either sown directly, and grown in the same containers, or they were first grown separately as seedlings and transplanted into the test containers a few days prior to treatment.\nas §3, §4, §5\n(§9) In the examples, the solvent used was water.\n(§10) In the examples below, using the method of S. R. Colby (1967) “Calculating synergistic and antagonistic responses of herbicide combinations”, Weeds 15, p. […] E=X+Y−(X·Y/100) where X=effect in percent using herbicide A at an application rate a; • Y=effect in percent using herbicide B at application rate b; • E=expected effect (in %) of herbicide A+herbicide B at application rates a+b."}, "Avena fatua [3]": {"tested_on": "Avena fatua", "experiment": "greenhouse post-emergence treatment, AVEFA", "settings": "Avena fatua, sc, 480 h, 20 DAT, AVEFA", "procedure": "as §1, §8, §3, §4, §5, §9, §10"}, "Matricaria chamomilla": {"tested_on": "Matricaria chamomilla", "experiment": "greenhouse post-emergence treatment, MATCH", "settings": "Matricaria chamomilla, sc, 480 h, 20 DAT, MATCH", "procedure": "as §1\n(§11) For the post-emergence treatment, the test plants were grown to a plant height of from 3 to 15 cm, depending on the plant habit, and only then treated with the active compounds which had been suspended or emulsified in water. To this end, the test plants were either sown directly, and grown in the same containers, or they were first grown separately as seedlings and transplanted into the test containers a few days prior to treatment.\nas §3, §4, §5, §6, §7"}, "Lolium multiflorum": {"tested_on": "Lolium multiflorum", "experiment": "greenhouse post-emergence treatment, LOLMU", "settings": "Lolium multiflorum, sc, 480 h, 20 DAT, LOLMU, read-out: % activity", "procedure": "as §1, §8, §3, §4, §5, §9, §10"}, "Polygonum convolvulus": {"tested_on": "Polygonum convolvulus", "experiment": "greenhouse post-emergence treatment, POLCO", "settings": "Fallopia convolvulus, sc, 480 h, 20 DAT, POLCO", "procedure": "as §1, §11, §3, §4, §5, §6, §7"}, "Setaria viridis": {"tested_on": "Setaria viridis", "experiment": "greenhouse post-emergence treatment, SETVI", "settings": "Setaria viridis, sc, 480 h, 20 DAT, SETVI, pendimethalin SC 400 g/l solo 250 gai/ha, read-out: % activity", "procedure": "as §1, §8, §3, §4, §5, §9, §10"}, "Stellaria media": {"tested_on": "Stellaria media", "experiment": "greenhouse post-emergence treatment, STEME", "settings": "Stellaria media, sc, 480 h, 20 DAT, STEME, pendimethalin SC 400 g/l solo 500 gai/ha", "procedure": "as §1, §11, §3, §4, §5, §6, §7"}, "Digitaria sanguinalis": {"tested_on": "Digitaria sanguinalis", "experiment": "greenhouse post-emergence treatment, DIGSA", "settings": "Digitaria sanguinalis, sc, 480 h, 20 DAT, DIGSA, pendimethalin SC 400 g/l solo 125 gai/ha, read-out: % activity", "procedure": "as §1, §8, §3, §4, §5, §9, §10"}, "Bromus sterilis [4]": {"tested_on": "Bromus sterilis", "experiment": "greenhouse post-emergence treatment, BROST", "settings": "Bromus sterilis, sc, 480 h, 20 DAT, BROST", "procedure": "as §1, §8, §3, §4, §5, §9, §10"}, "Apera spica-venti": {"tested_on": "Apera spica-venti", "experiment": "greenhouse post-emergence treatment, APESV", "settings": "solo, SC 400 g/l, APESV, 250 gai/ha, 20 DAT", "procedure": "as §1, §11, §3, §4, §5, §6, §7"}, "[5]": {"settings": "pendimethalin SC 400 g/l solo 125 gai/ha, read-out: % activity"}, "[6]": {"settings": "pendimethalin SC 400 g/l solo 250 gai/ha"}, "[7]": {"settings": "pendimethalin SC 400 g/l solo 500 gai/ha"}, "[8]": {"settings": "pendimethalin SC 400 g/l solo 1000 gai/ha"}, "[9]": {"settings": "pendimethalin SC 400 g/l solo 125 gai/ha"}}, "data": [{"smiles": "CCC(CC)Nc1c([N+](=O)[O-])cc(C)c(C)c1[N+](=O)[O-]", "note": "[pendimethalin]", "values": [{"measurement": "inhibition at 125 g/ha", "setting": "Avena fatua [1]", "value": 0, "unit": "%"}, {"measurement": "inhibition at 100 g/ha", "setting": "Helianthus annuus; pendimethalin SC 400 g/l solo 100 gai/ha", "value": 10, "unit": "%"}, {"measurement": "inhibition at 125 g/ha", "setting": "Helianthus annuus; [5]", "value": 0, "unit": "%"}, {"measurement": "inhibition at 250 g/ha", "setting": "Helianthus annuus; [6]", "value": 0, "unit": "%"}, {"measurement": "inhibition at 500 g/ha", "setting": "Helianthus annuus; [7]", "value": 10, "unit": "%"}, {"measurement": "inhibition at 250 g/ha", "setting": "Bromus sterilis [2]; pendimethalin SC 400 g/l solo 250 gai/ha, read-out: % activity", "value": 0, "unit": "%"}, {"measurement": "inhibition at 500 g/ha", "setting": "Bromus sterilis [2]; [7]", "value": 0, "unit": "%"}, {"measurement": "inhibition at 1000 g/ha", "setting": "Bromus sterilis [2]; [8]", "value": 10, "unit": "%"}, {"measurement": "% herbicidal activity (weed control, 0-100 scale) at 250 g/ha", "setting": "Brachiaria decumbens; [6]", "value": 0, "unit": "%"}, {"measurement": "% herbicidal activity (weed control, 0-100 scale) at 500 g/ha", "setting": "Brachiaria decumbens; [7]", "value": 0, "unit": "%"}, {"measurement": "% herbicidal activity (weed control, 0-100 scale) at 1000 g/ha", "setting": "Brachiaria decumbens; [8]", "value": 0, "unit": "%"}, {"measurement": "percent weed control (herbicidal activity, 0-100 scale) at 250 g/ha", "setting": "Ambrosia elatior; [6]", "value": 0, "unit": "%"}, {"measurement": "percent weed control (herbicidal activity, 0-100 scale) at 1000 g/ha", "setting": "Ambrosia elatior; [8]", "value": 0, "unit": "%"}, {"measurement": "inhibition at 125 g/ha", "setting": "Alopecurus myosuroides", "value": 20, "unit": "%"}, {"measurement": "inhibition at 125 g/ha", "setting": "Avena fatua [3]; [5]", "value": 0, "unit": "%"}, {"measurement": "inhibition at 250 g/ha", "setting": "Avena fatua [3]; [6]", "value": 0, "unit": "%"}, {"measurement": "inhibition at 500 g/ha", "setting": "Avena fatua [3]; [7]", "value": 0, "unit": "%"}, {"measurement": "inhibition at 1000 g/ha", "setting": "Avena fatua [3]; [8]", "value": 0, "unit": "%"}, {"measurement": "inhibition at 500 g/ha", "setting": "Matricaria chamomilla; [7]", "value": 0, "unit": "%"}, {"measurement": "inhibition at 1000 g/ha", "setting": "Matricaria chamomilla; [8]", "value": 0, "unit": "%"}, {"measurement": "inhibition at 125 g/ha", "setting": "Lolium multiflorum; [9]", "value": 10, "unit": "%"}, {"measurement": "inhibition at 250 g/ha", "setting": "Lolium multiflorum; [6]", "value": 20, "unit": "%"}, {"measurement": "inhibition at 125 g/ha", "setting": "Polygonum convolvulus; [9]", "value": 40, "unit": "%"}, {"measurement": "inhibition at 500 g/ha", "setting": "Polygonum convolvulus; [7]", "value": 60, "unit": "%"}, {"measurement": "inhibition at 250 g/ha", "setting": "Setaria viridis", "value": 50, "unit": "%"}, {"measurement": "inhibition at 500 g/ha", "setting": "Stellaria media", "value": 70, "unit": "%"}, {"measurement": "inhibition at 125 g/ha", "setting": "Digitaria sanguinalis", "value": 45, "unit": "%"}, {"measurement": "inhibition at 125 g/ha", "setting": "Bromus sterilis [4]; [9]", "value": 0, "unit": "%"}, {"measurement": "inhibition at 250 g/ha", "setting": "Bromus sterilis [4]; [6]", "value": 0, "unit": "%"}, {"measurement": "inhibition at 500 g/ha", "setting": "Bromus sterilis [4]; [7]", "value": 0, "unit": "%"}, {"measurement": "inhibition at 1000 g/ha", "setting": "Bromus sterilis [4]; [8]", "value": 0, "unit": "%"}, {"measurement": "% activity", "setting": "Apera spica-venti", "value": 0, "unit": "%"}]}]}
